This is an account of results in patent US20100004171A1, “Therapeutic Methods for Neuropathic Pain” (priority 2006, published 2010).

The subject of series [1] is agrin mRNA. The experiment in a line: RT-PCR of agrin gene expression (C-terminal primers) in L3-5 spinal cord. Type of series: in vivo, rat. The method, then: Gene expression alterations after the nerve injury: Gene expression for amino(“N”)- and carboxy(“C”)-terminal halves of agrin was analyzed from L3-5 spinal cord of the rats (sacrificed at 2 hr, 24 hr, 3 days, and 7 days post surgery), using RT-PCR and real-time PCR. The differences in gene expression between sham-operated and nerve-injured groups were compared.
Total RNA extraction: The rats were deeply anesthetized with isoflurane and decapitated. The spinal cord from L3-5 was quickly removed and immediately put into a tube containing TRIzol® (2 ml, Invitrogen, Carlsbad, Calif.). The tissue was homogenized with IKA® T8 homogenizer (IKA®, Staufen, Germany) for 2 min, allowed to stand at room temperature for 3 min, and 0.4 ml chloroform added. The tube was vortexed and centrifuged at 12,000×g for 15 min. The water phase was transferred to a clean tube without any contamination from other phases. Then 1 ml isopropanol was added to the water phase, and the mixture allowed to stand for 10 min at room temperature. The tube was centrifuged for 10 min at 12,000×g. The supernatant was discarded, and the pellet washed with 1 ml 70% ethanol. The ethanol was discarded, and the RNA was re-dissolved in 30 μl nucleotide-free water. A 1 μl aliquot was taken and reserved to dilute 20-fold for RNA quality control. […]
[…]. Changes in agrin gene induced by the injected drug was analyzed and compared.

Series [2] relates to rodents. As to conditions: orally to rodents, 3.7 mmol/kg to 36 mmol/kg; cited from earlier work.
In series [3] the test system is cultured human hepatocytes. As to conditions: 100 μM; cited from earlier work.
In series [4] the test system is tactile allodynia in allodynic rats. The experiment in a line: Tactile allodynia test (von Frey filaments, paw withdrawal threshold) in CCI (Bennett model) rats. It counts as in vivo, rat. As to conditions: for effect on tactile allodynia: day 7 after injury.
Series [5] has as its system Bennett model rats with hyperalgesia and allodynia. As to conditions: intrathecally, 30 nmol/kg; cited from earlier work.
Series [6] can be described thus: Solubility for intrathecal injection. It counts as physicochemical. The method, then:
The maximum volume injected at any one time was 10 μl.^[79]

The test system of series [7] is agrin protein. The experiment in a line: Western blot of agrin protein in L3-5 spinal cord. It counts as in vivo, rat. The method, then:
Western blot for detecting protein expression of agrin: Agrin protein was analyzed from L3-5 spinal cord with Western blot as described below at times of 1 day, 3 days, and 7 days post-surgery. The changes in these proteins between sham-operated, nerve-injured (no drug), and nerve-injured (pre-emptive drug) groups were analyzed.
Agrin Protein Extraction: The rats were deeply anesthetized with isoflurane and decapitated. Spinal cord L3-5 was quickly removed and immediately placed into tissue lysis buffer (1 ml, Sigma Co., St. Louis, Mo.) that contained protein enzyme inhibitors (1:100, Halt, Pierce). The tissue was homogenized for 2 min and incubated on ice for 45 min. The sample was then centrifuged at 10,000×g for 30 min at 4° C. The supernatant was transferred to a new tube and centrifuged again for further clarifying. The concentration of the protein was determined by an Agilent's Bio-Rad protein chip (Agilent's 2100 bioanalyzer, Santa Clara, Calif.) and by the […] (reagents from Bio-Rad).
Western blot: Protein (20 μg) from each sample was mixed with 2× electrophoresis buffer and boiled for 5 min. The samples, along with a negative control, were loaded on 4-15% acrylamide tris-glycine SDS gels and electrophoresed in a cell (Bio-Rad) for approximately 1 hr. A Hybond-P polyvinylidene difluoride membrane (Bio-Rad, Hercules, Calif.) was used for transferring the protein in a mini-trans-blot transfer cell (Bio-Rad) for 2 hr. The membrane was then soaked in 2% milk for 1 hour and probed with monoclonal agrin antibody (Agr510 and Agr530, 1:5000, StressGen Biotechnologies Corp., Victoria, Canada) or β-actin antibody (1:5000) at 4° C. overnight with continual shaking. The following day goat anti-mouse secondary antibody conjugated to Alexa Fluor680 (1:5000, Molecular Probe) was added to the membrane and incubated for 1 hr at room temperature. The samples were washed three times with TBS buffer (Tris Buffered Saline, DAKO, Carpinteria, Calif.) between steps. The membrane was then scanned with an Odyssey (LI-COR) scanner and analyzed by Odyssey software (Li-Cor, Lincoln, Nebr.).
In rats with tactile allodynia (a withdrawal threshold with a filament below 8 g), an intrathecal catheter (PE 10) was installed and linked to an osmotic pump (Alzet) in a 37° C. water bath. Following a bolus injection of SCP-1 (30 nmol/kg, 10 μl), agrin siRNA (100 nM) was intrathecally administered continuously by the pump at a rate of 5 μl/1 hour for 4 hr. The animals were subjected to von Frey filament test every 15 min for 4 hr to determine whether the effects of SCP-1 on allodynia suppression are blocked by agrin siRNA. A control siRNA (nFsiRNA) was applied in the same way. The behavioral data was analyzed for agrin effects. […]
A general note: Immunoblotting shows a protein as a band on a membrane.

Regarding `O=C(CN1C(=O)c2ccccc2S1(=O)=O)Nc1ccc(O)cc1` [SCP-1], the “agrin mRNA” value in series [1] (allodynic rats, intrathecal injection 7 days post injury, one- and two-hour post injection) was “increased”; in series [1] (pre-emptive intrathecal injection prior to CCI, 3 and 7 days post-injury) it was “did not show a decrease in agrin mRNA”. The “toxicity after oral dosing” value in series [2] was “the animals were still moving normally”. Besides, in series [3], the apoptosis result is on record as “did not induce apoptosis”. The “duration of suppressive effect” value in series [4] (Example 9: SCP-1 alone) is reported as “at least 4 hr”. The “effect on tactile allodynia” value in series [4] (intrathecal 1 nmol) is recorded as “did not affect tactile allodynia”; in series [4] (intrathecal 10 nmol) it was “did not affect tactile allodynia”; in series [4] (intrathecal 50 nmol), “only a mild effect”; in series [4] (intrathecal 200 nmol), “suppressed the tactile allodynia”. Further, the “withdrawal threshold at 2 hr post-injection” value in series [4] (intrathecal 100 nmol) was found to be 27.3 ± 2.5 g. For the same molecule, in series [4] (intrathecal 100 nmol, basal threshold 4.6±1.1 g), the “withdrawal threshold at 90 min after injection” value turned out to be 28 ± 2.4 g. Also, the “effect on tactile allodynia (paw withdrawal threshold)” value in series [4] (pre-emptive intrathecal 100 nmol in 10 μl saline immediately prior to CCI, 0, 3, 7 days) is given as “prevented”. Also, the “duration of prevention of tactile allodynia” value in series [4] (pre-emptive intrathecal 100 nmol prior to CCI) was “up to 7 days”. Besides, the “effect on paw withdrawal threshold at 7 days” value in series [4] (pre-emptive intrathecal 100 nmol prior to CCI, 7 days after injury) is “remained strong”. In addition, in series [5], the “effect on allodynia and hyperalgesia” value is “depressed the signs of allodynia and hyperalgesia”. Moreover, the “solubility in 45% 2-hydroxypropyl-α-cyclodextrin in saline” value in series [6] (45% cyclodextrin in saline, 10 mM solutions prepared) was “can dissolve them”. Further, in series [6] (water), the solubility in water result is “do not dissolve readily in water”. Also, the agrin protein level result in series [7] (allodynic rats, 2 h post-SCP-1 injection) is reported as “up-regulated to a normal level”. Besides, the agrin protein result in series [7] (pre-emptive intrathecal injection prior to CCI, 3 and 7 days) is given as “did not decrease”.
